The text below walks through data of patent publication US20060210520A1, “Macadamia lipid based surfactants and derivatives and process for preparing same” (Finetex, Inc., priority 2005, published 2006).

The series can be described thus: Analytical results of the Macadamia esters (Table I). Type of series: physicochemical. How it is done:
An analysis of the esters was conducted as to appearance, color, surface tension, spreading coefficient, freezing point, percentage of water, refractive index, and specific gravity.

With C12-15 Pareth-7 Macadamiate, the “Spreading Coeffecient (° C.)” value is 31.50, the “Viscosity (CPS)” value came out at 100 CPS, the “Interfacial Tension (25° C.)” value is 8.50 and the “Surface Tension (25° C.)” value came out at 32.00.

Take Ceteareth-4 Macadamiate: the “Spreading Coeffecient (° C.)” value was determined as 32.15, the “Viscosity (CPS)” value was determined as 120 CPS, the “Interfacial Tension (25° C.)” value was found to be 8.35 and the “Surface Tension (25° C.)” value amounted to 32.50.

As to Isostearyl Macadamiate, the “Spreading Coeffecient (° C.)” value was found to be 32.75, the “Viscosity (CPS)” value amounted to 40 CPS, the “Interfacial Tension (25° C.)” value was 7.75 and the “Surface Tension (25° C.)” value is recorded as 31.5.

In the case of PPG-3 Myristyl Ether Macadamiate, the “Spreading Coeffecient (° C.)” value is recorded as 34.00, the “Viscosity (CPS)” value was 80 CPS, the “Interfacial Tension (25° C.)” value turned out to be 7.00 and the “Surface Tension (25° C.)” value was determined as 31.0.
